The values below come from patent US7767674B2, “Kinase inhibitors” (Eli Lilly and Company, priority 2004, dated 2010).

The target in assay [1] is p38 kinase enzyme (Homo sapiens, UniProt Q16539). The assay is described as follows: Inhibition of p38 kinase (33P-ATP, EGF peptide 661-681 substrate). It is filed as biochemical. As to conditions: 33P-ATP assay, 40 min at 30° C. The protocol: The kinase buffer solution is prepared by combining 2.5 mL 1M Tris-HCl (pH 7.5), 0.1 mL 1M dithiothreitol, 1.0 mL 1M magnesium chloride, and 300 μL 1% Triton X-100 and diluting to 100 mL with water. 84 mL of this kinase buffer solution is combined with 16 mL DMSO to prepare the 16% DMSO solution.
The 200 μM ATP solution is prepared by adding 102.6 μL 10 mM aqueous ATP, 25 μL ^33P-ATP, and 163.5 μL of 4 mM aqueous Epidermal Growth Factor Peptide 661-681 (Biomol, Catalog #P-121) in 5 mL kinase buffer solution.
The p38 kinase enzyme solution is prepared by dissolving 9.5 μL concentrated enzyme solution (250 ng p38 enzyme/μL kinase buffer solution) in 1536 μL kinase buffer solution.
An 80 μM solution of each test compound and control compound are prepared by dissolving 2 μL of a 10 mM stock solution of the respective compounds in dimethylsulfoxide in 248 μL of the 16% DMSO solution in a Costar 96-well microtiter plate. The plate is placed onto the Tecan Genesis automated liquid handler for 1:3 serial dilutions.
10 μL of serially diluted compound is placed with a Beckman Multimek 96-well automated liquid handler to the assay plate. 20 μL of 200 μM ATP solution is added with a Titertek Multidrop 8-channel liquid handler. 10 μL of p38 kinase enzyme solution is transferred to the assay plate using the Multimek. The mixture is allowed to react for 40 min at 30° C. and then the reaction is stopped by adding 60 μL of freshly prepared 5% glacial AcOH with Multidrop. 80 μL of this solution is transferred to an “MAPH” plate using the Multimek. The plates are allowed to set for 30 min at room temperature and then washed/aspirated on the Titertek MAP extractor with freshly prepared 0.5% glacial AcOH (1×300 μL, 2×200 μL). […] The plates are allowed to sit for 30 min and counted on a PE/Wallac Microbeta Trilux scintillation counter for ^33P-isotope.
All exemplified compounds are initially tested at 10 concentrations (20 μM-1 nM using 1:3 serial dilutions). […] IC50 values are calculated (IDBS ActivityBase software) for each compound using non-linear regression. […]

The subject of assay [2] is TNF-α production in mouse peritoneal macrophages. In words: Inhibition of TNF-α in vitro, LPS/interferon-γ stimulated mouse peritoneal macrophages, Luminex detection. The class given is cell-based. As to conditions: Peritoneal macrophage, LPS 50 ng/mL + interferon-γ 10 U/mL, 18 hr, read-out: IC50, suppression of TNF-α in vitro. On the procedure: 1 mL thioglycolate broth (5.0 g yeast extract, 15.0 g casitone or trypticase, 5.0 g dextrose, 2.5 g sodium chloride, 0.75 g L-cystine, 0.5 g sodium thioglycolate, 1.0 mg resazurin, and 0.75 g agar in 1.0 L distilled water) are injected into the peritoneal cavity of Balb/C female mice. At day 4 or 5 post-injection the mice are sacrificed and then injected i.p. with 4 mL RPMI-1640 medium (BioWhittaker) and the peritoneal macrophages are withdrawn by syringe. Mouse peritoneal microphages are counted with a hemocytometer and adjusted to 5×10^5 cells/well in 96-well plates in RPMI-1640 medium with 10% fetal bovine serum. 200 μL/well is plated in 96-well plates and the cells allowed to settle and adhere to the bottom of the well for at least 3 hr. The test compound or standard p38 kinase inhibitor is pre-treated using a series of 8 concentrations for 1 hr at 37° C. (20 μL/well). The cells are treated with a mixture of 50 ng/mL lipopolysaccharide (LPS) and 10 U/mL interferon-γ for 18 hr at 37° C. (20 μL/well). The conditioned media is harvested and assayed for TNF-α production using the Luminex procedure. […] Standards and samples are read on a Luminex machine. These intensity readings are then converted to picogram/milliliter units based on a 12-point standard curve created in duplicate using a four-parameter logistic regression method (Bio-Plex Manager 2.0, Bio-Rad), and the IC50 calculated.

Assay [3] concerns TNFa-levels in the plasma. The assay is described as follows: Inhibition of TNF in vivo, LPS-challenged mice, plasma TNFa by ELISA. The settings on record: p.o., female Balb/c mice, LPS IP 400 ug/kg 1 hr after compound, plasma 1.5 hrs after LPS. The protocol:
Compounds are administered p.o. (30, 10, 3 and 1 mg/kg) to female Balb/c mice (6 mice/dose). 1 hr following compound administration at 4 doses (P.O. at volume of 0.1 mL/mouse; vehicle: 1% NaCMC/0.25% Tween-80 in water); mice are given an IP-injection of LPS at 400 ug/kg. 1.5 hrs after LPS challenging, mice are anesthetized with isoflurane and blood is taken via cardiac puncture. TNFa-levels in the plasma are determined using ELISA kit from R&D Systems and dose response ED50 is determined.

For assay [4], the system named is TNF-α in synovial lavage fluid. In words: Effect on intra-articular LPS induced TNF-α, rat ankle synovial lavage fluid. The class given is in vivo. As to conditions: oral, female Lewis rats, intra-articular LPS 10 μg one hour after compound, lavage after two hours, read-out: ED50, inhibition of TNF-α synthesis in synovial lavage fluid. The protocol:
Intra-articular injection of LPS into rat ankles induces the synthesis of TNF-α, which can be measured in synovial lavage fluid. High levels of TNF-α are detectable within 2 hours. Since the joint is the site where arthritis develops, this model can rapidly determine whether an orally administered compound has an effect on an inflammatory response in the synovium.
Six female Lewis rats (150-200 g) are place in each treatment group. The animals are given vehicle (1% NaCarboxymethylcellulose-0.25% Tween 80) or test compound (1 mg/kg, 3 mg/kg, 10 mg/kg, and 30 mg/kg) orally. One hour later, 10 μl LPS (10 μg) is administered intra-articularly into the right ankle of each rat, while the left ankle receives 10 μL of saline. After two hours, each ankle is lavaged with 100 μL of saline. The lavage is collected and stored at −80° C.
TNF-α is measured with a commercially available ELISA kit (R&D, RTA00). Treatment with Example 100 produced a dose response inhibition of TNF-α synthesis, as measured in the synovial lavage fluid with ED50=30 mg/kg.

Sequence of p38 kinase enzyme (Q16539 whole entry): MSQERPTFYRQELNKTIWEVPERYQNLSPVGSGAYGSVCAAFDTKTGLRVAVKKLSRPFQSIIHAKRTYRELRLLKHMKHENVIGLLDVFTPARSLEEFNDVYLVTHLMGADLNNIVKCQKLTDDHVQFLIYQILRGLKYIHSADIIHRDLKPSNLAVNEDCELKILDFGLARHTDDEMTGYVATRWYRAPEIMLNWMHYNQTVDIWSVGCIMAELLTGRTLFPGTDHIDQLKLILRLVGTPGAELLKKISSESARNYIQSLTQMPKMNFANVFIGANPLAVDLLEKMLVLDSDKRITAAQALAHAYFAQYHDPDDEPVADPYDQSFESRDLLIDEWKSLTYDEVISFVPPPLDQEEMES

As to `Cn1nc(C(C)(C)C)cc1NC(=O)Nc1cc(F)cc(OC2CCN(C(=O)C(C)(C)C)CC2)c1` [Example 70, 1-(5-tert-Butyl-2-methyl-2H-pyrazol-3-yl)-3-{3-[1-(2,2-dimethyl-propionyl)-piperidin-4-yloxy]-5-fluoro-phenyl}-urea], inhibition in assay [1] was half-maximal at 19 nM (IC50).

As for `Cn1nc(C(C)(C)C)cc1NC(=O)Nc1ccc(CN2CCN(C(=O)c3c(F)cccc3F)CC2)cc1` [Example 100], the results for the IC50 in assay [2] and in assay [1] were 11 nM and 10 nM, respectively. The “TMED50, suppression of TNF in vivo” value in assay [3] is 2.4 mg/kg. The ED50 in assay [4] amounted to 30 mg/kg.

In assay [1], `Cc1ccc(-n2nc(C(C)(C)C)cc2NC(=O)Nc2ccc(N3CCN(C(=O)C(C)(C)C)CC3)cc2)cc1` [Example 136] gave an IC50 of 91 nM.
